Measurements reported in US20230212180A1, “SUBSTITUTED PYRAZINE COMPOUND, PHARMACEUTICAL COMPOSITION COMPRISING SAME, AND USE THEREOF” (Sichuan Kelun-Biotech Biopharmaceutical Co., Ltd., priority 2020, published 2023).
Read-outs that look alike come from different tables or passages of the source.

Legend:
[1] = Pharmacokinetic (PK) studies in Balb/c mouse; assay type: in vivo; conditions: for AUC(0-t): read-out: AUClast; for half-life: read-out: T1/2 (converted)
Method: Test Example 7: Pharmacokinetic (PK) Studies in Balb/c Mouse
The compound of Example 12, Control Compound 1, Control Compound 2, and TNO-155 were administered to female Balb/c mice by intravenous injection (IV) and gavage (PO) respectively to estimate the pharmacokinetic properties. Dosing amounts for IV and PO routes were 1 mg/kg and 10 mg/kg, respectively. The solvent for IV route was 5% DMSO+5% Solutol+90% Saline, and the solvent for PO route was 0.5% MC (sodium methylcellulose). Blood was collected at various time points after IV and PO administration. The blood from the test groups of the compound of Example 12, Control Compound 1, and Control Compound 2 was anticoagulated using EDTA.K2 and preserved at −80° C. The blood from the test groups of TNO-155 was anticoagulated using EDTA.K2 and centrifuged to obtain plasma samples, and the plasma samples were preserved at −80° C.
The blood or plasma samples were subjected to protein precipitation and then to the LC-MS/MS analysis. WinNonlin 6.3 software was used to calculate the pharmacokinetic parameters by non-compartmental model, and the results were listed in Table 7 below.

KYSE-520 cell xenograft = test: Tumor inhibition in KYSE-520 xenograft model; assay type: in vivo, nu-nu mice; conditions: for TGI (%) (calculated by the tumor volume): once-daily oral, 21 consecutive days
Method: Test Example 9: Experiment on Tumor Inhibition in KYSE-520 Xenograft Model
A CDX xenograft animal model was established by subcutaneously inoculating KYSE-520 cells in nu-nu mice. After tumor formation, the mice were orally administered once daily to evaluate the in vivo drug efficacy of different test compounds.
The KYSE-520 cells were subjected to monolayer in vitro culture. The culture conditions were as follows: 10% fetal bovine serum was added into the RPMI 1640 medium, and the cells were cultured in an incubator at 37° C. in air containing 5% CO2. The cells were digested twice a week with […] for passaging. When the cells were in exponential growth phase, the cells were harvested and counted. The KYSE-520 cell strains cultured to the logarithmic growth phase were prepared into a single cell suspension (the cells were resuspended in PBS and mixed with Matrigel Matrix Phenol Red-free at a ratio of 1:1, and the final concentration of the cells was 5×10^7/ml). Each of the nude mice was inoculated with 0.1 ml subcutaneously into the right axilla of the nude mice to establish a xenograft model of nude mice with esophageal cancer. When the tumors grew to 130 mm^3, the nude mice were randomly divided into 5 groups and administered. The dosage regime was as shown in Table 9 (once-daily oral administration for 21 consecutive days). The vehicle was 5% DMSO+5% Solutol+90% H2O.
The animals were monitored daily for health and mortality. Routine inspections included observing the influences of drug treatment on the animals' daily behaviors, such as actions and activities, food (water) intake, physical signs, or other abnormalities, and recording them accordingly.
Mice were weighed and tumor volumes were measured twice a week, and the data were recorded. The tumor volume (V) was calculated by the following equation: V=½×a×b^2, wherein a and b indicated the length and width, respectively.
The anti-tumor efficacy was evaluated by tumor growth inhibition TGI (%). […] When the tumor regressed, TGI (%) (tumor volume)=100%−(TVt−TV0)/TV0×100%.

EGFR (ErbB1) T790M L858R = target: T1, EGFR (ErbB1) T790M L858R (Homo sapiens, UniProt P00533, L858R/T790M); test: Kinase selectivity test (ThermoFisher); assay type: biochemical
T1 construct: purchased ThermoFisher USA (contract testing)
Method: (§1) Test Example 11: Kinase Selectivity Test
(§2) 1. Experimental Purpose: Tests for selectivity of the compounds of the present disclosure for a plurality of kinases were carried out to assess the safety risk of the compounds of the present disclosure.
(§3) 2. Test institution: ThermoFisher USA
(§4) 3. Testing methods: LanthaScreen binding, Z′-LYTE, Adapta
(§5) 4. Test targets: 100 targets in total

CDK8/ cyclin C = target: T2, CDK8/ cyclin C (Homo sapiens, UniProt P49336); test: Kinase selectivity test (ThermoFisher); assay type: biochemical; parameters: concentration or dose not given beside the values
T2 construct: purchased ThermoFisher USA (contract testing)
Method: as §1, §2, §3, §4, §5

GSK3A (GSK3 alpha) = target: T3, GSK3A (GSK3 alpha) (Homo sapiens, UniProt P49840); test: Kinase selectivity test (ThermoFisher); assay type: biochemical; parameters: concentration or dose not given beside the values
T3 construct: purchased ThermoFisher USA (contract testing)
Method: as §1, §2, §3, §4, §5

JAK2 = target: T4, JAK2 (Homo sapiens, UniProt O60674); test: Kinase selectivity test (ThermoFisher); assay type: biochemical; parameters: concentration or dose not given beside the values
T4 construct: purchased ThermoFisher USA (contract testing)
Method: as §1, §2, §3, §4, §5

KDR (VEGFR2) = target: T5, KDR (VEGFR2) (Homo sapiens, UniProt P35968); test: Kinase selectivity test (ThermoFisher); assay type: biochemical; parameters: concentration or dose not given beside the values
T5 construct: purchased ThermoFisher USA (contract testing)
Method: as §1, §2, §3, §4, §5

MAPKAPK2 = target: T6, MAPKAPK2 (Homo sapiens, UniProt P49137); test: Kinase selectivity test (ThermoFisher); assay type: biochemical; parameters: concentration or dose not given beside the values
T6 construct: purchased ThermoFisher USA (contract testing)
Method: as §1, §2, §3, §4, §5

MET (cMet) = target: T7, MET (cMet) (Homo sapiens, UniProt P08581); test: Kinase selectivity test (ThermoFisher); assay type: biochemical; parameters: concentration or dose not given beside the values
T7 construct: purchased ThermoFisher USA (contract testing)
Method: as §1, §2, §3, §4, §5

SGK (SGK1) = target: T8, SGK (SGK1) (Homo sapiens, UniProt O00141); test: Kinase selectivity test (ThermoFisher); assay type: biochemical; parameters: concentration or dose not given beside the values
T8 construct: purchased ThermoFisher USA (contract testing)
T8 sequence (O00141 1-431): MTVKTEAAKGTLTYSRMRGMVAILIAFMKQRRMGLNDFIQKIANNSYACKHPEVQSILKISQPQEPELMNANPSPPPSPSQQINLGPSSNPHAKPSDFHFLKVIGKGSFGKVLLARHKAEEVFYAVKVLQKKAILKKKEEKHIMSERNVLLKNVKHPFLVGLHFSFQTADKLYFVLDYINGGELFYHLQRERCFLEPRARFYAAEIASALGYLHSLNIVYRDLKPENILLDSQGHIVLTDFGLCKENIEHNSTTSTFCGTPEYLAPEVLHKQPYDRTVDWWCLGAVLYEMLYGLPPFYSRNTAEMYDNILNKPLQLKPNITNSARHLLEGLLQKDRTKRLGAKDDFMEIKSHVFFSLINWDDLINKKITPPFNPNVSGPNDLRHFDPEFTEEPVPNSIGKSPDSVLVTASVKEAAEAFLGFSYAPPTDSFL
Method: as §1, §2, §3, §4, §5

100 kinase targets = test: Kinase selectivity test, whole panel (ThermoFisher); assay type: biochemical
Method: as §1, §2, §3, §4, §5

[2] = mouse, in vivo, female Balb/c mice, PO, 10 mg/kg, blood (TNO-155: plasma)
[3] = mouse, whole blood (TNO-155: plasma), female Balb/c mice, PO, 10 mg/kg, blood (TNO-155: plasma)

T7 sequence (P08581 25-1390): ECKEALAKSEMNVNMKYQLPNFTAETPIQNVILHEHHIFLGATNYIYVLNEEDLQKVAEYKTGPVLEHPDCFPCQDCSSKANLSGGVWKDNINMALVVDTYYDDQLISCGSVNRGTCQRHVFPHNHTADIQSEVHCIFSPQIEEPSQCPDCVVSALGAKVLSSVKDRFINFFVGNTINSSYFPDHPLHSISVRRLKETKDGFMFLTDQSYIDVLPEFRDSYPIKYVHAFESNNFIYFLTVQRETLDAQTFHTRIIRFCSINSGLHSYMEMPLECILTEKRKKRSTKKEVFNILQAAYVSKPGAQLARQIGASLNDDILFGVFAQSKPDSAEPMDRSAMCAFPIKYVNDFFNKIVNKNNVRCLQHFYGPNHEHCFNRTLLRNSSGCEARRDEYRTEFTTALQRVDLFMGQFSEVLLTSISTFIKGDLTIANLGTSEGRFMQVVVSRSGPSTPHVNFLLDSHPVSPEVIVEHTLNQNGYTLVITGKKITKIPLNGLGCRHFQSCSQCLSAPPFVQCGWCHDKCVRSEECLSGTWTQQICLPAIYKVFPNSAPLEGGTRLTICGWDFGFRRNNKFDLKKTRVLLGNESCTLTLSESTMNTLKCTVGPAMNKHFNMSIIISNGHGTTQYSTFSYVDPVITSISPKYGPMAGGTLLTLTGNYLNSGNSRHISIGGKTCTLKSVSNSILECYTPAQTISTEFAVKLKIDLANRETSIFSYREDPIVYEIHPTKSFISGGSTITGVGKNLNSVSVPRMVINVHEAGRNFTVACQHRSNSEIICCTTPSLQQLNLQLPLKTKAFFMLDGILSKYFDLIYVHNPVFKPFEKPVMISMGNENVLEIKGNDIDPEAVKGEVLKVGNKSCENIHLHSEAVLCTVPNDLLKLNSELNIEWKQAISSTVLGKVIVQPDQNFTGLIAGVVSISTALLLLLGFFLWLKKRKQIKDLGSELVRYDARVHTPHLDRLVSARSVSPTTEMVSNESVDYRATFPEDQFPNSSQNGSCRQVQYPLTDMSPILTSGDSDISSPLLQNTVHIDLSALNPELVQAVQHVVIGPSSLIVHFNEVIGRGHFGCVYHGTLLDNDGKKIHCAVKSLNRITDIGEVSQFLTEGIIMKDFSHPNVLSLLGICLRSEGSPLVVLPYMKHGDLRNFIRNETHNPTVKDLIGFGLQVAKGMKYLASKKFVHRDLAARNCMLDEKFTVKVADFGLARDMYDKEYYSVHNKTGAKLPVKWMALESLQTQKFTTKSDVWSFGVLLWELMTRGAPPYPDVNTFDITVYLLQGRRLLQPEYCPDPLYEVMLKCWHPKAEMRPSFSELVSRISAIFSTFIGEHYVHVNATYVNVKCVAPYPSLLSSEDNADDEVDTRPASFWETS
T4 sequence (O60674 whole entry): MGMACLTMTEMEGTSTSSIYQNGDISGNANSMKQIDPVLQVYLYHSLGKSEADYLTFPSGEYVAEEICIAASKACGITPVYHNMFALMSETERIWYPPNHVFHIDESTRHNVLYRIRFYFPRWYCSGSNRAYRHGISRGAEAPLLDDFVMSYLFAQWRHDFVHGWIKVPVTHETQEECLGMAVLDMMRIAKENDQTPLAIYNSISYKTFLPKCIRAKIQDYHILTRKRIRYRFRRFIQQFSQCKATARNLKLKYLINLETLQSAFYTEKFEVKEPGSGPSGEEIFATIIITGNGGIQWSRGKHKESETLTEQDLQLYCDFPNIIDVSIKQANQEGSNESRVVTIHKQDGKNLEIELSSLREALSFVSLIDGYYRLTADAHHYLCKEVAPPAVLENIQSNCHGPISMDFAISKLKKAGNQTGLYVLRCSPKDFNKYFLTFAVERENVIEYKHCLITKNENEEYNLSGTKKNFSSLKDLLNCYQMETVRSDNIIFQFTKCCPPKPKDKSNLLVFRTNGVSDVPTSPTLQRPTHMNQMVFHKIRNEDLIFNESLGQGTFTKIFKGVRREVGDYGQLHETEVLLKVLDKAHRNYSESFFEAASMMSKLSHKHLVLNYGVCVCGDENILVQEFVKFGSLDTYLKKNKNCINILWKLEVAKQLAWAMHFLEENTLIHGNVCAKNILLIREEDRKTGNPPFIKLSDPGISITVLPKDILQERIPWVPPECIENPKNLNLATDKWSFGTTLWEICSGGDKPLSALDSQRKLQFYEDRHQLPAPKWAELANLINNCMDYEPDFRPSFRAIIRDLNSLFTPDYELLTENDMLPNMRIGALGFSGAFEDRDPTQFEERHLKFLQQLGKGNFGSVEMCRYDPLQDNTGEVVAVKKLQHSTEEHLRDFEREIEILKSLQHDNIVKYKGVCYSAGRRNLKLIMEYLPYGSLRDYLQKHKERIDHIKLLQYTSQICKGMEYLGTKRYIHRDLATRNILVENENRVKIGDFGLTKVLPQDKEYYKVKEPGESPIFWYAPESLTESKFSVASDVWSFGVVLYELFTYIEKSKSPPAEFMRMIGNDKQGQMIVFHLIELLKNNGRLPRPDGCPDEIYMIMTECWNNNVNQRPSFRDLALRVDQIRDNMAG
T1 sequence (P00533 25-1210 T790M/L858R): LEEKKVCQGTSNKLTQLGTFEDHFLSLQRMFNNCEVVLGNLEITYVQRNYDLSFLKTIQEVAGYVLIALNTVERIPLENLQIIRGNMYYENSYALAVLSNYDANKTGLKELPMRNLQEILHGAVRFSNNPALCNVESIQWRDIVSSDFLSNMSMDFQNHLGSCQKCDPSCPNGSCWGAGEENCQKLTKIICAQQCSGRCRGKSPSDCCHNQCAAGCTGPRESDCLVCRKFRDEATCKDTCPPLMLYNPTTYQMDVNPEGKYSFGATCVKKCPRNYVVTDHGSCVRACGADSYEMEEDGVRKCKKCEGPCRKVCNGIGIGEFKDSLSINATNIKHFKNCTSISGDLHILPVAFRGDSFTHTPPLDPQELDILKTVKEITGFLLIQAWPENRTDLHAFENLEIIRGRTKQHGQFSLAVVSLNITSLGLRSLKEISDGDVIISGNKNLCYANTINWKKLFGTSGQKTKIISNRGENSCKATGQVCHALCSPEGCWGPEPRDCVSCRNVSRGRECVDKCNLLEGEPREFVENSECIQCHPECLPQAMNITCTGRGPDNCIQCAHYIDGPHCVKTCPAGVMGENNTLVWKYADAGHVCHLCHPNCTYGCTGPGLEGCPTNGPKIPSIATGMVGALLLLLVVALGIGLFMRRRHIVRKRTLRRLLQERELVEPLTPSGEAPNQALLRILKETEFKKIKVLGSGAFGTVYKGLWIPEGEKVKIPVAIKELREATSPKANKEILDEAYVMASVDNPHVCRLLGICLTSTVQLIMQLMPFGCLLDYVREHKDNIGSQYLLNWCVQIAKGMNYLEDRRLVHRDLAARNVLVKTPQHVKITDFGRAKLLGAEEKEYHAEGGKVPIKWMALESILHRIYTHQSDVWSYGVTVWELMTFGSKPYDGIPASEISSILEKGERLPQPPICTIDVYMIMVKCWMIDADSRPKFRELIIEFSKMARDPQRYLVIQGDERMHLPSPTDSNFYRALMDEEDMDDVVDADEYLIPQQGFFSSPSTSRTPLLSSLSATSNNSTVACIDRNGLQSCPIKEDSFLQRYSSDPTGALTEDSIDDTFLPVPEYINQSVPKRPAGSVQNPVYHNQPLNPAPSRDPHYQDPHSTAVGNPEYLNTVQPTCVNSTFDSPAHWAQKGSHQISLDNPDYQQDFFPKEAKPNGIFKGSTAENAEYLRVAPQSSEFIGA
T5 sequence (P35968 20-1356): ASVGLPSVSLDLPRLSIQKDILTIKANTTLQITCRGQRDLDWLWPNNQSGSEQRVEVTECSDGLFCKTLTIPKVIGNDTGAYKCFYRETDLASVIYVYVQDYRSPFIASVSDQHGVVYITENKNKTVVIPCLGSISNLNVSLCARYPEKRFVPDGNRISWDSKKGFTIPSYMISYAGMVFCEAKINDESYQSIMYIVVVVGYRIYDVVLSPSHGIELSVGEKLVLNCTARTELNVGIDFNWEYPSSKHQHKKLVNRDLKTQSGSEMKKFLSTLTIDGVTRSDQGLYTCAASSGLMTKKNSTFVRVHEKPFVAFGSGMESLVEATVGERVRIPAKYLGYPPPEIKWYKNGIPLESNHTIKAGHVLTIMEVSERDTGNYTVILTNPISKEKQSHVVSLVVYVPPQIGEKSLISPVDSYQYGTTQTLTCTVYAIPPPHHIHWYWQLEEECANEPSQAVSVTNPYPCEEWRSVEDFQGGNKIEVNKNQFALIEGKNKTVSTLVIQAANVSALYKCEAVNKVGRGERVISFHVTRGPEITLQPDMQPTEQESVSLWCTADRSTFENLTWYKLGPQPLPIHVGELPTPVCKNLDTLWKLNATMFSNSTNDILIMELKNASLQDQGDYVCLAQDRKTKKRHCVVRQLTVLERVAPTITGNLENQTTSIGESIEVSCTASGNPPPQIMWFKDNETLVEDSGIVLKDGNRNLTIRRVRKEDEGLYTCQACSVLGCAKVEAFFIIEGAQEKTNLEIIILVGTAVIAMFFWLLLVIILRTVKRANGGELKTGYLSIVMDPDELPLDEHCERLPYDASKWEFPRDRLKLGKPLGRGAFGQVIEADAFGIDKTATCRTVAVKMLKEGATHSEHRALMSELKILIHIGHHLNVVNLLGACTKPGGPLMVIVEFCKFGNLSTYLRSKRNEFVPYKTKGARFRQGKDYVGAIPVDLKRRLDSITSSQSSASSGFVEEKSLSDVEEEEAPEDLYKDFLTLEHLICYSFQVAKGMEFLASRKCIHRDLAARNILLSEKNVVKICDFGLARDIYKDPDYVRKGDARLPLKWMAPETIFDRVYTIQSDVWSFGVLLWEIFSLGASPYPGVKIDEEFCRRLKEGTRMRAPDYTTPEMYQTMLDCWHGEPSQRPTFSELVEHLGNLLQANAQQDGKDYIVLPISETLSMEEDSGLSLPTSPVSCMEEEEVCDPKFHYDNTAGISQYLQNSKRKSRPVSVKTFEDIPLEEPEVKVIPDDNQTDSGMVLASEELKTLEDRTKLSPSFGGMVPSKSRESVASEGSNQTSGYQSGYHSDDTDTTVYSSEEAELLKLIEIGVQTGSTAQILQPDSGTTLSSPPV

SMILES | TGI (%) (calculated by the tumor volume) (KYSE-520 cell xenograft; 10 mpk) | TGI (%) (calculated by the tumor volume) (KYSE-520 cell xenograft; 30 mpk) | Inhibition (%) Target 1 (EGFR (ErbB1) T790M L858R) | Inhibition (%) Target 2 (EGFR (ErbB1) T790M L858R) | Inhibition (%) Mean value (EGFR (ErbB1) T790M L858R) | Inhibition (%) Target 1 (CDK8/ cyclin C) | Inhibition (%) Target 2 (CDK8/ cyclin C) | Inhibition (%) Mean value (CDK8/ cyclin C) | Inhibition (%) Target 1 (GSK3A (GSK3 alpha)) | Inhibition (%) Target 2 (GSK3A (GSK3 alpha)) | Inhibition (%) Mean value (GSK3A (GSK3 alpha)) | Inhibition (%) Target 1 (JAK2) | Inhibition (%) Target 2 (JAK2) | Inhibition (%) Mean value (JAK2) | Inhibition (%) Target 1 (KDR (VEGFR2)) | Inhibition (%) Target 2 (KDR (VEGFR2)) | Inhibition (%) Mean value (KDR (VEGFR2)) | Inhibition (%) Target 1 (MAPKAPK2) | Inhibition (%) Target 2 (MAPKAPK2) | Inhibition (%) Mean value (MAPKAPK2) | also measured
C[C@@H]1OCC2(CCN(c3ncc(Sc4ccnc(N5CC(C(C)(C)O)C5)c4Cl)nc3CO)CC2)[C@@H]1N [Example 12, 2-(1-(4-(5-((3S,4S)-4-amino-3-methyl-2-oxa-8-azaspiro[4.5]decan-8-yl)-6-(hydroxymethyl)pyrazin-2-ylthio)-3-chloropyridin-2-yl)azetidin-3-yl)propan-2-ol] | 81.28% | 96.93% | 0% | 5% | 2% | 7% | −3% | 2% | 9% | 8% | 8% | −7% | −2% | −4% | 3% | 4% | 3% | 31% | 27% | 29% | pharmacokinetic properties (in words) ([1]; Balb/c mice, 1 mg/kg by injection and 10 mg/Kg by mouth): excellent pharmacokinetic properties; AUC(0-t) ([1]; mouse, in vivo, female Balb/c mice, IV, 1 mg/kg, blood (TNO-155: plasma)): 2590 ng·h/mL; clearance ([1]; mouse, in vivo, female Balb/c mice, IV, 1 mg/kg, blood (TNO-155: plasma), read-out: Cl): 6.23 mL/min/kg; AUC(0-t) [1, 2]: 12300 ng·h/mL; half-life [1, 2]: 7.13 h; tumor inhibitory effect (in words) (KYSE-520 cell xenograft; oral administration for 21 consecutive days): remarkable tumor inhibitory effect; Inhibition (%) Target 1 (MET (cMet)): −1%; Inhibition (%) Target 2 (MET (cMet)): 16%; Inhibition (%) Mean value (MET (cMet)): 7%; Inhibition (%) Target 1 (SGK (SGK1)): 1%; Inhibition (%) Target 2 (SGK (SGK1)): 2%; Inhibition (%) Mean value (SGK (SGK1)): 1%; inhibitory effect on all of the 100 kinase targets (100 kinase targets; all 100 kinase targets): weak inhibitory effect
C[C@@H]1OCC2(CCN(c3cnc(Sc4ccnc(N)c4Cl)c(N)n3)CC2)[C@@H]1N [TNO-155, reference compound] | 55.49% | 72.74% | 81% | 77% | 79% | 89% | 89% | 89% | 92% | 87% | 90% | 61% | 57% | 59% | 73% | 73% | 73% | 106% | 107% | 106% | Cl ([1]; female Balb/c mice, IV, 1 mg/kg, blood (TNO-155: plasma)): 24 mL/min/kg; AUC(0-t) ([1]; mouse, whole blood (TNO-155: plasma), female Balb/c mice, IV, 1 mg/kg, blood (TNO-155: plasma)): 672 ng·h/mL; AUC(0-t) [1, 3]: 7910 ng·h/mL; half-life [1, 3]: 1.69 h; Inhibition (%) Target 1 (MET (cMet)): 42%; Inhibition (%) Target 2 (MET (cMet)): 40%; Inhibition (%) Mean value (MET (cMet)): 41%; Inhibition (%) Target 1 (SGK (SGK1)): 62%; Inhibition (%) Target 2 (SGK (SGK1)): 57%; Inhibition (%) Mean value (SGK (SGK1)): 60%; inhibitory effect on the remaining 86 targets (100 kinase targets; 86 of the 100 kinase targets): weak inhibitory effect; inhibitory effect on the above 14 kinase targets (100 kinase targets; the 14 kinases of the table): strong inhibitory effect
